The values that follow come from US20060235222A1, “Indole-derivative modulators of steroid hormone nuclear receptors” (ELI LILLY AND COMPANY, priority 2003, published 2006).

Some results are limits rather than exact numbers.

One data set addresses T1, human MR (Homo sapiens, UniProt P08235).
T1 construct: The full length human MR gene is cloned from a human kidney or human brain cDNA library; inferred from own knowledge of the pAcHLT vector (N); made in house; host or cells: Sf9 insect cells (baculovirus)
T1 sequence (P08235 1-984): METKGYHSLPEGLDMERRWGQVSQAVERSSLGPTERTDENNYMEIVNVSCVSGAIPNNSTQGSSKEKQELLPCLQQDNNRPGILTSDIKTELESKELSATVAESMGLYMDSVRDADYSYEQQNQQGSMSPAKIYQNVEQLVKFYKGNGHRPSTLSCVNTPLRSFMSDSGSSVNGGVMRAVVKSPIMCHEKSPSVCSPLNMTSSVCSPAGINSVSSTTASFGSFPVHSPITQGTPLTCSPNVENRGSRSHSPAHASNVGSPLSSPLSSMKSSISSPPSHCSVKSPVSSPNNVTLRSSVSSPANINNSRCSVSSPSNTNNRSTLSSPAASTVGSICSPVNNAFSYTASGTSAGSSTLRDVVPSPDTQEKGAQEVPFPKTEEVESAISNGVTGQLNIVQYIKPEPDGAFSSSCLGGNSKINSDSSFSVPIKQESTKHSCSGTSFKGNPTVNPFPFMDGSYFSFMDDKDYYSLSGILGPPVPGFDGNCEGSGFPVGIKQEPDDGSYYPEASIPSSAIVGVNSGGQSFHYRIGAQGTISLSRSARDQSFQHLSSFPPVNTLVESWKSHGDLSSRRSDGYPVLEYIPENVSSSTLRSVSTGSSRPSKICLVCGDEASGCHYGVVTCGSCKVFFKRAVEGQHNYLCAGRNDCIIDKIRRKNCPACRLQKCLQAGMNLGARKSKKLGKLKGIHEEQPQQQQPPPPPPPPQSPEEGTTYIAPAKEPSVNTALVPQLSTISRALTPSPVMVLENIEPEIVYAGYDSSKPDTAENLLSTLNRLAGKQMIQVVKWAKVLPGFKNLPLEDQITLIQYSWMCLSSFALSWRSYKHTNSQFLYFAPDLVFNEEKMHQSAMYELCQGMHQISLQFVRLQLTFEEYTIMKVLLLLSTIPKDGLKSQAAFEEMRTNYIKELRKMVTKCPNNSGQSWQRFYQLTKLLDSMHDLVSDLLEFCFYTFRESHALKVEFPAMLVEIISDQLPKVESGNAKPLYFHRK
Put plainly: Mineralocorticoid Receptor Binding Assay (Method 1), [3H]-aldosterone competition. The following applies: 0.5 nM [3H]-aldosterone, human MR expressed in Sf9 cells. A digest of the protocol:
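Full-length human MR expressed in Sf9 cells via baculovirus; lysate supernatant (about 20-25 μg protein) incubated with 0.5 nM [3H]-aldosterone and test compound for about 16 h at 4° C. Buffer was Tris/molybdate/phosphate/pyrophosphate with 10% glycerol, pH 7.5; filter-bound complex counted by scintillation.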

The target in data set [1] is T2, human GR (glucocorticoid receptor) (Homo sapiens, UniProt P04150).
T2 construct: expressed in transfected cells; host or cells: 293 cells
T2 sequence (P04150 1-777): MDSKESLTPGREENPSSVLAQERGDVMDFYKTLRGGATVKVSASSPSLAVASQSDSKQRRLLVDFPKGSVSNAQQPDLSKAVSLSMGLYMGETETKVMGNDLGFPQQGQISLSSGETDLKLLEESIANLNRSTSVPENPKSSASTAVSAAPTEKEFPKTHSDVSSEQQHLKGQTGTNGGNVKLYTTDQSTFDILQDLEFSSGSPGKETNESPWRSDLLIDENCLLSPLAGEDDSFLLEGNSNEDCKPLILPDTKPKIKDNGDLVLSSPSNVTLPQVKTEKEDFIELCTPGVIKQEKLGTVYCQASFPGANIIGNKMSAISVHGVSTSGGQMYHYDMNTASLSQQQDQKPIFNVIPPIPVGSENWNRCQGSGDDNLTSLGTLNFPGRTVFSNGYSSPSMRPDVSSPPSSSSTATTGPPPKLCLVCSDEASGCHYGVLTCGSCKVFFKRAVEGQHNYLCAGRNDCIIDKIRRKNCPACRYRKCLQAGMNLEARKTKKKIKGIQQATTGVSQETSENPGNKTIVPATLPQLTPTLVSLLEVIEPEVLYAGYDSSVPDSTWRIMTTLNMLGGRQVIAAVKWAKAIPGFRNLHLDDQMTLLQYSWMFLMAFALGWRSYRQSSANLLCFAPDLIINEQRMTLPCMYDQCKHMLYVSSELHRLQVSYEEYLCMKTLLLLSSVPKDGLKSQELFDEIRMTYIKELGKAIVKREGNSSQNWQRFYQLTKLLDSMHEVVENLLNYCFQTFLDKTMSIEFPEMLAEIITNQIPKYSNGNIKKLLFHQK
Kind of data set: Alternative Binding Assay Protocol (Method 2), 293-GR lysate, 3H-dexamethasone competition. The note with it: 0.3 nM 3H-dexamethasone. As to the method: Alternative Binding Assay Protocol for MR, GR, AR, and PR (Method 2):
Cell lysates from 293 cells overexpressing human GR (glucocorticoid receptor), AR (androgen receptor), MR (mineralocorticoid receptor) or PR (progesterone-receptor) are used for competition binding assays to determine Ki values for test compounds. […] Competing compounds are added at various concentraions in half-log increments. Non-specific binding is determined in the presence of 500 nM dexamethasone for GR binding, 500 nM aldosterone for MR binding, or 500 nM methyltrienolone for AR and PR binding. The binding reaction (140 μl) is incubated for overnight at 4° C., then 70 μl of cold charcoal-dextran buffer (containing per 50 ml of assay buffer, 0.75 g of charcoal and 0.25 g of dextran) is added to each reaction. Plates are mixed 8 minutes on an orbital shaker at 4° C. Plates are then centrifuged at 3,000 rpm at 4° C. for 10 minutes. An aliquot of 120 μl of the mix is transferred to another 96-well plate and 175 μl of Wallac Optiphase “Hisafe 3” scintillation fluid is added to each well. Plates are sealed and shaken vigorously on an orbital shaker. After an incubation of 2 hrs, plates are read in a Wallac Microbeta counter. […] The Kd for ^3H-dexamethasone for GR binding, ^3H-methyltrienolone for AR binding, ^3H-aldosterone for MR binding, or ^3H-methyltrienolone for PR binding, is determined by saturation binding. The IC50 values for compounds are converted to Ki using Cheng-Prusoff equation and the Kd determined by saturation binding assay.

A word on the melting point: it is the temperature, or range, at which the solid turns liquid. `CCC(CC)(c1ccc2sc(C)nc2c1)c1c[nH]c2c(NS(C)(=O)=O)cccc12` [Example 140, N-{3-[1-Ethyl-1-(2-methyl-benzothiazol-5-yl)-propyl]-1H-indol-7-yl}-methanesulfonamide] gave a melting point of 112 to 117 °C. The term Ki denotes a measure of affinity in units of concentration, obtained from inhibition or displacement. High values mean a looser hold on the target, low ones a stronger hold on the target. For the molecule `CCC(CC)(c1ccc2scnc2c1)c1c[nH]c2c(NS(C)(=O)=O)cccc12` [Example 142, N-[3-(1-Benzothiazol-5-yl-1-ethyl-propyl)-1H-indol-7-yl]-methanesulfonamide], the melting point was 105 to 115 °C (dec.). The same molecule registered a Ki on human MR of under 500 nM. In the same order, the values of `CCC(CC)(c1ccc2c(N)noc2c1)c1c[nH]c2c(NS(C)(=O)=O)cccc12` [Example 143, N-{3-[1-(3-Amino-benzo[d]isoxazol-6-yl)-1-ethyl-propyl]-1H-indol-7-yl}-methanesulfonamide] are 95 to 105 °C and under 500 nM.

Turning to `CCC(CC)(c1ccc2nc(N)sc2c1)c1c[nH]c2c(NS(C)(=O)=O)cccc12` [Example 144, N-{3-[1-(2-Amino-benzothiazol-6-yl)-1-ethyl-propyl]-1H-indol-7-yl}-methanesulfonamide], the melting point lay within 155 to 160 °C. The molecule also registered a Ki at human MR of under 500 nM.

For `CCC(CC)(c1ccc2oc(C)nc2c1)c1c[nH]c2c(NS(C)(=O)=O)cccc12` [Example 145, N-{3-[1-Ethyl-1-(2-methyl-benzooxazol-5-yl)-propyl]-1H-indol-7-yl}-methanesulfonamide], the melting point was in the range of 152 to 160 °C. Take `CCC(CC)(c1ccc2ncsc2c1)c1c[nH]c2c(NS(C)(=O)=O)cccc12` [Example 149, N-[3-(1-Benzothiazol-6-yl-1-ethyl-propyl)-1H-indol-7-yl]-methanesulfonamide]: the melting point was in the range of 117 to 120 °C. For the same molecule, the Ki on human MR is under 500 nM. `CCC(CC)(c1ccc2sc(NC(C)=O)nc2c1)c1c[nH]c2c(NS(C)(=O)=O)cccc12` [Example 150, N-{5-[1-Ethyl-1-(7-methanesulfonylamino-1H-indol-3-yl)-propyl]-benzothiazol-2-yl}-acetamide] registered a melting point of 266 to 268 °C. Same read-out and setting: then `CCC(CC)(c1ccc2nc(C(F)(F)F)[nH]c2c1)c1c[nH]c2c(NS(C)(=O)=O)cccc12` [Example 151, N-{3-[1-Ethyl-1-(2-trifluoromethyl-3H-benzoimidazol-5-yl)-propyl]-1H-indol-7-yl}-methanesulfonamide], with 225 to 235 °C. Regarding `CCC(CC)(c1ccc2onc(N)c2c1)c1c[nH]c2c(NS(C)(=O)=O)cccc12` [Example 152, N-{3-[1-(3-Amino-benzo[d]isoxazol-5-yl)-1-ethyl-propyl]-1H-indol-7-yl}-methanesulfonamide], the melting point is 155 to 161 °C. The molecule also displayed a Ki on human MR of under 500 nM.

For the molecule `CCC(CC)(c1ccc2oc(C)cc2c1)c1c[nH]c2c(NS(C)(=O)=O)cccc12` [Example 155, N-{3-[1-Ethyl-1-(2-methyl-benzofuran-5-yl)-propyl]-1H-indol-7-yl}-methanesulfonamide], the melting point was 100 to 105 °C. In the case of `CCC(CC)(c1ccc2c(ccn2C(C)=O)c1)c1c[nH]c2c(NS(C)(=O)=O)cccc12` [Example 156, N-{3-[1-(1-Acetyl-1H-indol-5-yl)-1-ethyl-propyl]-1H-indol-7-yl}-methanesulfonamide], the melting point was in the range of 125 to 130 °C. Take `CCC(CC)(c1ccc2[nH]ccc2c1)c1c[nH]c2c(NS(C)(=O)=O)cccc12` [Example 157, N-{3-[1-Ethyl-1-(1H-indol-5-yl)-propyl]-1H-indol-7-yl}-methanesulfonamide]: the melting point is 115 to 120 °C. The same molecule gave a Ki at human MR of under 500 nM.

As to `CCC(CC)(c1ccc2cc[nH]c2c1)c1c[nH]c2c(NS(C)(=O)=O)cccc12` [Example 159, N-{3-[1-Ethyl-1-(1H-indol-6-yl)-propyl]-1H-indol-7-yl}-methanesulfonamide], the melting point fell in the range of 110 to 115 °C. Besides, the Ki on human MR is under 500 nM. `CCC(CC)(c1cccc2oc(C)cc12)c1c[nH]c2c(NS(C)(=O)=O)cccc12` [Example 160, N-{3-[1-Ethyl-1-(2-methyl-benzofuran-4-yl)-propyl]-1H-indol-7-yl}-methanesulfonamide]: the melting point is 85 to 90 °C. `CCC(CC)(c1ccc2c(c1)nc(C)n2C)c1c[nH]c2c(NS(C)(=O)=O)cccc12` [Example 162, N-{3-[1-(1,2-Dimethyl-1H-benzoimidazol-5-yl)-1-ethyl-propyl]-1H-indol-7-yl}-methanesulfonamide]: the melting point fell in the range of 275 to 278 °C.

As for `CC1(c2c[nH]c3c(NS(C)(=O)=O)cccc23)CCCCc2ccccc21` (stereo not drawn) [Example 189], the Ki (in data set [1]; on human MR) was under 500 nM in each case. Regarding `CCC(CC)(c1ccc2sc(C)nc2c1)c1c[nH]c2c(NS(C)(=O)=O)cccc12` [Example 190], the Ki (in data set [1]; on human MR) was under 500 nM throughout. Regarding `CCC(CC)(c1ccc2oc(C)nc2c1)c1c[nH]c2c(NS(C)(=O)=O)cccc12` [Example 191], the Ki in data set [1] was under 1000 nM; on human MR, under 500 nM. Consider `CCC(CC)(c1ccc2nc(C)oc2c1)c1c[nH]c2c(NS(C)(=O)=O)cccc12` [Example 193], for which the Ki (in data set [1]; at human MR) was under 500 nM in each case.

Regarding `CCC(CC)(c1ccc2c(ccn2C(C)=O)c1)c1c[nH]c2c(NS(C)(=O)=O)cccc12` [Example 195], the Ki in data set [1] is under 1000 nM; on human MR, under 500 nM. As for `CCC(CC)(c1ccc(N2CCOCC2)cc1)c1c[nH]c2c(NS(C)(=O)=O)cccc12` [Example 197], the Ki (in data set [1]; at human MR) was under 500 nM in each case.

`CCC(CC)(c1ccc2nc(NC(C)=O)sc2c1)c1c[nH]c2c(NS(C)(=O)=O)cccc12` [Example 199]: the Ki was under 500 nM in data set [1] and under 1000 nM on human MR.
